Square brackets hold non-standard residues; d marks the D form. Peptide text beside a SMILES is read from it.
Legend:
human CXCR4 [1] = target: T1, human CXCR4 (Homo sapiens, UniProt P61073); assay: CXCR4/CXCL12 binding, HTRF format, single concentration (Example 23); set-up: host or cells: HEK293 (Tag-lite CXCR4 cells, frozen aliquots, transient expression); settings: 15 nM CXCR4R fluorescent probe, 3 hours, HEK293 Tag-lite CXCR4 cells
Outline: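 Tag-lite CXCR4 cells were exposed to peptide at 400 nM final with 15 nM (EC80) fluorescent CXCR4 probe for 3 h at room temperature. HTRF was read, and the 665/620 nm ratio ×10,000 measured probe bound to terbium-labelled receptor.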

Jurkat cells = assay: CXCL12 mediated cell migration, Jurkat cells; type: cell-based, human; settings: 1.1 μM test article, 100 ng/ml CXCL12, 1 hour
Protocol: The assay was performed following a protocol similar to that described by Peng, et al., Mol Cancer Ther., 14480-90 (2015), incorporated herein by reference. Peptides were initially prepared as 1 mM stock in H2O and tested at a final concentration of 1.1 μM. […] Jurkat cells were resuspended in serum free media (RPMI+GlutaMax; Gibco/Thermo Fisher Scientific; Gaithersburg, Md.) containing 0.5% bovine serum albumin at density of 5×10^6 cells/ml. […] Cells (250,000 cells in 50 μl) supplemented with the appropriate treatments were seeded on to the upper chamber of a 96-well 5 μm HTS Transwell filter insert (Corning/Costar; Tewksbury, Mass.). […] Filter inserts were immediately placed on top of 96-well receiver trays and placed at 37° C. in a humidified atmosphere of 5% CO2/95% air for 1 hour. Following the 1 hour incubation period the filter inserts were carefully removed and the migration of cells across the filter into the bottom chamber (receiver wells) was determined by measuring ATP levels using Cell TiterGlo 2.0, according to manufacturer's instructions (Promega; Madison, Wis.); luminescence was measured using a Cytation 3 plate reader (BioTek; Winooski, Vt.).

[2] = system: CXCR4/CXCL12 induced p-MEK; assay: CXCR4/CXCL12 induced p-MEK in Jurkat cells (ELISA); type: cell-based, human; settings: 5 nM CXCL12, 5 min
Outline: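 Jurkat cells in RPMI+GlutaMax containing 10% FBS and 1% penicillin/streptomycin, fresh or conditioned, were resuspended at 2×10^6 cells/ml and […] aliquots placed in tubes. After a 5 min stimulation they were pelleted, rinsed with HBSS and lysed with PMSF and protease/phosphatase inhibitors. Phospho-MEK1 (Ser217/221) was quantified by sandwich ELISA with absorbance read at 450 nm.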

human CXCR4 [3] = target: T1, human CXCR4; assay: IC50 for inhibition of CXCR4 activation, β-Arrestin recruitment (Example 22); type: cell-based; set-up: host or cells: C2C12 (mouse myoblast) CXCR4 β-Arrestin PathHunter cell line
Outline: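 C2C12 cells co-expressing ProLink-tagged human CXCR4 and Enzyme Acceptor-tagged β-arrestin (PathHunter). Peptides tested in 10-point, 3-fold dilutions from 1 μM (1 μM–0.05 nM). Recruitment read by chemiluminescent enzyme-fragment complementation after 90 min incubation.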

T1 sequence (P61073 whole entry): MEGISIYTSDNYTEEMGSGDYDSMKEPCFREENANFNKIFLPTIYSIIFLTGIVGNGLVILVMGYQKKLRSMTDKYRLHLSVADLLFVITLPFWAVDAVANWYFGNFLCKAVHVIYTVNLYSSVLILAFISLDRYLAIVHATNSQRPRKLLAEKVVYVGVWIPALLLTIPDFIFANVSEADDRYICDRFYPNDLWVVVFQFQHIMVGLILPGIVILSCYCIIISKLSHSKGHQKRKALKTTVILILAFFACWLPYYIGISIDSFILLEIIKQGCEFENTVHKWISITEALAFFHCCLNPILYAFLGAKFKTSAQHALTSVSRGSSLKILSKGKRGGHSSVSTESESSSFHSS

| Percent Inhibition of CXCR4/CXCL12 Binding (400 nM peptide) (human CXCR4 [1]) [%] | IC50 (human CXCR4 [3]) [nM] | SMILES | Percent Inhibition of CXCL12 Mediated Migration (1.1 μM Test Article) (Jurkat cells) [%] | Percent Inhibition of CXCR4/CXCL12 Induced p-MEK (100 nM Test Article) [2] [%] | Percent Inhibition of CXCR4/CXCL12 Induced p-MEK (1 μM Test Article) [2] [%] |
| --- | --- | --- | --- | --- | --- |
| 12 | 3 | CC(C)C[C@H](NC(=O)[C@H](CO)NC(=O)[C@H](CO)NC(=O)[C@H](CCCNC(=N)N)NC(=O)[C@@H](NC(=O)[C@H](CO)NC(=O)[C@H](Cc1c[nH]cn1)NC(=O)[C@H](Cc1c[nH]cn1)NC(=O)[C@H](Cc1ccc(O)cc1)NC(=O)[C@H](CCCNC(=N)N)NC(=O)[C@H](CCCNC(=N)N)NC(=O)[C@@H](N)CC(C)C)C(C)C)C(=O)N[C@@H](CCCNC(=N)N)C(=O)NCC(=O)N[C@@H](Cc1ccc(O)cc1)C(=O)N[C@H](C(=O)N[C@@H](CCCCN)C(=O)O)[C@@H](C)O [compound 79] (H-LRRYHHSVRSSLRGYTK-OH; N-terminus and C-terminus assumed) | 36 | 46 | 100 |
| 75 | 6 | CC(C)C[C@H](NC(=O)[C@H](CO)NC(=O)[C@@H](NC(=O)[C@H](CCCNC(=N)N)NC(=O)[C@@H](C)NC(=O)[C@H](CO)NC(=O)[C@H](Cc1c[nH]cn1)NC(=O)[C@H](Cc1c[nH]cn1)NC(=O)[C@H](Cc1ccc(O)cc1)NC(=O)[C@H](CCCNC(=N)N)NC(=O)[C@H](CCC(=O)O)NC(=O)[C@@H](N)CC(C)C)[C@@H](C)O)C(=O)N[C@@H](CCCNC(=N)N)C(=O)N1CCC[C@H]1C(=O)N[C@@H](Cc1ccc(O)cc1)C(=O)N[C@H](C(=O)N[C@@H](CCCCN)C(=O)O)[C@@H](C)O [compound 76] (H-LERYHHS[dA]RTSLRPYTK-OH; N-terminus and C-terminus assumed) | – | 5 | 44 |
| 29 | 3 | CC(C)C[C@H](NC(=O)[C@@H](NC(=O)[C@H](CO)NC(=O)[C@H](CCCNC(=N)N)NC(=O)[C@@H](NC(=O)[C@H](CO)NC(=O)[C@H](Cc1c[nH]cn1)NC(=O)[C@H](Cc1c[nH]cn1)NC(=O)[C@H](Cc1ccc(O)cc1)NC(=O)[C@H](CCCNC(=N)N)NC(=O)[C@H](CCCNC(=N)N)NC(=O)[C@@H](N)CC(C)C)C(C)C)[C@@H](C)O)C(=O)N[C@@H](CCCNC(=N)N)C(=O)N1CCC[C@H]1C(=O)N[C@@H](Cc1ccc(O)cc1)C(=O)N[C@H](C(=O)N[C@@H](CCCCN)C(=O)O)[C@@H](C)O [compound 71] (H-LRRYHHSVRSTLRPYTK-OH; N-terminus and C-terminus assumed) | – | 56 | 94 |
| 77 | 4 | CC(C)C[C@H](NC(=O)[C@@H](NC(=O)[C@H](CO)NC(=O)[C@H](CCCNC(=N)N)NC(=O)[C@@H](C)NC(=O)[C@H](CO)NC(=O)[C@H](Cc1c[nH]cn1)NC(=O)[C@H](Cc1c[nH]cn1)NC(=O)[C@H](Cc1ccc(O)cc1)NC(=O)[C@H](CCCNC(=N)N)NC(=O)[C@H](CCC(=O)O)NC(=O)[C@@H](N)CC(C)C)[C@@H](C)O)C(=O)N[C@@H](CCCNC(=N)N)C(=O)N1CCC[C@H]1C(=O)N[C@@H](Cc1ccc(O)cc1)C(=O)N[C@H](C(=O)N[C@@H](CCCCN)C(=O)O)[C@@H](C)O [compound 77] (H-LERYHHS[dA]RSTLRPYTK-OH; N-terminus and C-terminus assumed) | – | 7 | 68 |

Second part, the molecule before the results:

| SMILES | Percent Inhibition of CXCR4/CXCL12 Binding (400 nM peptide) (human CXCR4 [1]) [%] | IC50 (human CXCR4 [3]) [nM] | Percent Inhibition of CXCL12 Mediated Migration (1.1 μM Test Article) (Jurkat cells) [%] | Percent Inhibition of CXCR4/CXCL12 Induced p-MEK (100 nM Test Article) [2] [%] | Percent Inhibition of CXCR4/CXCL12 Induced p-MEK (1 μM Test Article) [2] [%] |
| --- | --- | --- | --- | --- | --- |
| CC(C)C[C@H](NC(=O)[C@H](CO)NC(=O)[C@@H](NC(=O)[C@H](CCCNC(=N)N)NC(=O)[C@@H](NC(=O)[C@H](CO)NC(=O)[C@H](Cc1c[nH]cn1)NC(=O)[C@H](Cc1c[nH]cn1)NC(=O)[C@H](Cc1ccc(O)cc1)NC(=O)[C@H](CCCNC(=N)N)NC(=O)[C@H](CCCNC(=N)N)NC(=O)[C@@H](N)CC(C)C)C(C)C)[C@@H](C)O)C(=O)N[C@@H](CCCNC(=N)N)C(=O)N1CCC[C@H]1C(=O)N[C@@H](Cc1ccc(O)cc1)C(=O)N[C@H](C(=O)N[C@@H](CCCCN)C(=O)O)[C@@H](C)O [compound 70] (H-LRRYHHSVRTSLRPYTK-OH; N-terminus and C-terminus assumed) | 11 | – | 21 | 57 | 93 |
| CC(C)C[C@H](NC(=O)[C@H](CO)NC(=O)[C@H](CO)NC(=O)[C@H](CCCNC(=N)N)NC(=O)[C@@H](NC(=O)[C@H](CO)NC(=O)[C@H](Cc1c[nH]cn1)NC(=O)[C@H](Cc1c[nH]cn1)NC(=O)[C@H](Cc1ccccc1)NC(=O)[C@H](CCCNC(=N)N)NC(=O)[C@H](CCCNC(=N)N)NC(=O)[C@@H](N)CC(C)C)C(C)C)C(=O)N[C@@H](CCCNC(=N)N)C(=O)N1CCC[C@H]1C(=O)N[C@@H](Cc1ccc(O)cc1)C(=O)N[C@H](C(=O)N[C@@H](CCCCN)C(=O)O)[C@@H](C)O [compound 53] (H-LRRFHHSVRSSLRPYTK-OH; N-terminus and C-terminus assumed) | 5 | 3 | 59 | 62 | 98 |
| CC(C)C[C@H](NC(=O)[C@H](CO)NC(=O)[C@H](CO)NC(=O)[C@H](CCCNC(=N)N)NC(=O)[C@@H](NC(=O)[C@H](CO)NC(=O)[C@H](Cc1c[nH]cn1)NC(=O)[C@H](Cc1c[nH]cn1)NC(=O)[C@H](Cc1ccc(O)cc1)NC(=O)[C@H](CCCNC(=N)N)NC(=O)[C@H](CCC(=O)O)NC(=O)[C@@H](N)CC(C)C)C(C)C)C(=O)N[C@@H](CCCNC(=N)N)C(=O)N1CCC[C@H]1C(=O)N[C@@H](Cc1ccc(O)cc1)C(=O)N[C@H](C(=O)O)[C@@H](C)O [compound 18] (H-LERYHHSVRSSLRPYT-OH; N-terminus and C-terminus assumed) | 57 | – | 66 | 45 | 78 |
| CC(C)C[C@H](NC(=O)[C@H](CO)NC(=O)[C@H](CO)NC(=O)[C@H](CCCNC(=N)N)NC(=O)[C@@H](C)NC(=O)[C@H](CO)NC(=O)[C@H](Cc1c[nH]cn1)NC(=O)[C@H](Cc1c[nH]cn1)NC(=O)[C@H](Cc1ccc(O)cc1)NC(=O)[C@H](CCCNC(=N)N)NC(=O)[C@H](CC(=O)O)NC(=O)[C@@H](N)CC(C)C)C(=O)N[C@@H](CCCNC(=N)N)C(=O)N1CCC[C@H]1C(=O)N[C@@H](Cc1ccc(O)cc1)C(=O)N[C@H](C(=O)N[C@@H](CCCCN)C(=O)O)[C@@H](C)O [compound 8] (H-LDRYHHS[dA]RSSLRPYTK-OH; N-terminus and C-terminus assumed) | 86 | 3 | 94 | 32 | 88 |
| CC(C)C[C@H](NC(=O)[C@H](CO)NC(=O)[C@H](CO)NC(=O)[C@H](CCCNC(=N)N)NC(=O)[C@@H](C)NC(=O)[C@H](CO)NC(=O)[C@H](Cc1c[nH]cn1)NC(=O)[C@H](CC(N)=O)NC(=O)[C@H](Cc1ccc(O)cc1)NC(=O)[C@H](CCCNC(=N)N)NC(=O)[C@H](CCC(=O)O)NC(=O)[C@@H](N)CC(C)C)C(=O)N[C@@H](CCCNC(=N)N)C(=O)N1CCC[C@H]1C(=O)N[C@@H](Cc1ccc(O)cc1)C(=O)N[C@H](C(=O)N[C@@H](CCCCN)C(=O)O)[C@@H](C)O [compound 43] (H-LERYNHS[dA]RSSLRPYTK-OH; N-terminus and C-terminus assumed) | 53 | 14 | – | 5 | 40 |

Source: patent US20220395553A1, “CXCR4 ANTAGONIST PEPTIDES” (COHBAR, INC., priority 2019, published 2022)
